From the NIST ThermoML archive (doi:10.1021/je700492k)

Assay: excess molar enthalpy (molar enthalpy of mixing); xn = mol fraction of the nth substance listed
Conditions: Liquid, Flow calorimetry

CC(=O)CC(C)=O [2,4-pentanedione] + CO
excess molar enthalpy [kcal/mol]
Conditions	298.15 K	313.15 K	328.15 K
100 kPa, x1 = 0.0502	0.0494	0.0583	0.0658
100 kPa, x1 = 0.0995	0.0896	0.107	0.122
100 kPa, x1 = 0.1494	0.125	0.15	0.172
100 kPa, x1 = 0.1998	0.154	0.187	0.215
100 kPa, x1 = 0.2496	0.178	0.217	0.251
100 kPa, x1 = 0.3006	0.199	0.243	0.282
100 kPa, x1 = 0.3504	0.215	0.263	0.307
100 kPa, x1 = 0.3995	0.227	0.278	0.325
100 kPa, x1 = 0.4492	0.237	0.289	0.338
100 kPa, x1 = 0.499	0.242	0.295	0.346
100 kPa, x1 = 0.5509	0.244	0.296	0.348
100 kPa, x1 = 0.5989	0.241	0.293	0.342
100 kPa, x1 = 0.6509	0.233	0.284	0.33
100 kPa, x1 = 0.7006	0.221	0.269	0.312
100 kPa, x1 = 0.7507	0.204	0.248	0.286
100 kPa, x1 = 0.8006	0.179	0.219	0.25
100 kPa, x1 = 0.85	0.147	0.183	0.205
100 kPa, x1 = 0.8983	0.109	0.136	0.152
100 kPa, x1 = 0.95	0.057	0.0741	0.0828
10000 kPa, x1 = 0.0501	0.0479	0.058	0.0654
10000 kPa, x1 = 0.0994	0.0879	0.107	0.121
10000 kPa, x1 = 0.1493	0.123	0.15	0.171
10000 kPa, x1 = 0.1997	0.152	0.187	0.214
10000 kPa, x1 = 0.2494	0.176	0.217	0.25
10000 kPa, x1 = 0.3004	0.196	0.243	0.28
10000 kPa, x1 = 0.3502	0.213	0.263	0.304
10000 kPa, x1 = 0.3993	0.225	0.277	0.323
10000 kPa, x1 = 0.449	0.235	0.289	0.335
10000 kPa, x1 = 0.4988	0.24	0.294	0.343
10000 kPa, x1 = 0.5507	0.242	0.296	0.345
10000 kPa, x1 = 0.5987	0.24	0.292	0.34
10000 kPa, x1 = 0.6507	0.233	0.283	0.328
10000 kPa, x1 = 0.7005	0.221	0.269	0.308
10000 kPa, x1 = 0.7505	0.204	0.248	0.282
10000 kPa, x1 = 0.8004	0.179	0.219	0.246
10000 kPa, x1 = 0.8498	0.147	0.182	0.203
10000 kPa, x1 = 0.8982	0.108	0.135	0.151
10000 kPa, x1 = 0.9499	0.0569	0.0725	0.0819

CC(=O)CC(C)=O [2,4-pentanedione] + CCO
excess molar enthalpy [kcal/mol]
Conditions	298.15 K	313.15 K	328.15 K
100 kPa, x1 = 0.0496	0.0592	0.0668	0.0752
100 kPa, x1 = 0.0992	0.109	0.124	0.142
100 kPa, x1 = 0.1496	0.156	0.175	0.2
100 kPa, x1 = 0.1992	0.193	0.219	0.25
100 kPa, x1 = 0.2491	0.225	0.255	0.29
100 kPa, x1 = 0.2988	0.251	0.283	0.324
100 kPa, x1 = 0.3482	0.273	0.309	0.353
100 kPa, x1 = 0.3988	0.29	0.327	0.373
100 kPa, x1 = 0.4484	0.301	0.34	0.387
100 kPa, x1 = 0.4988	0.309	0.348	0.395
100 kPa, x1 = 0.5476	0.312	0.349	0.396
100 kPa, x1 = 0.5991	0.309	0.345	0.39
100 kPa, x1 = 0.6484	0.3	0.334	0.377
100 kPa, x1 = 0.6976	0.286	0.316	0.355
100 kPa, x1 = 0.7494	0.264	0.29	0.324
100 kPa, x1 = 0.798	0.236	0.256	0.284
100 kPa, x1 = 0.849	0.196	0.211	0.233
100 kPa, x1 = 0.8992	0.146	0.154	0.169
100 kPa, x1 = 0.9485	0.0824	0.0848	0.0934
100 kPa, x1 = 0.9688	0.0518	0.0529	0.0585
10000 kPa, x1 = 0.0496	0.0575	0.0658	0.0749
10000 kPa, x1 = 0.0992	0.109	0.124	0.139
10000 kPa, x1 = 0.1496	0.153	0.174	0.198
10000 kPa, x1 = 0.1992	0.191	0.216	0.246
10000 kPa, x1 = 0.2491	0.223	0.253	0.287
10000 kPa, x1 = 0.2988	0.249	0.282	0.321
10000 kPa, x1 = 0.3482	0.27	0.306	0.348
10000 kPa, x1 = 0.3988	0.287	0.325	0.369
10000 kPa, x1 = 0.4484	0.299	0.338	0.382
10000 kPa, x1 = 0.4988	0.307	0.345	0.391
10000 kPa, x1 = 0.5476	0.309	0.347	0.391
10000 kPa, x1 = 0.5991	0.306	0.342	0.384
10000 kPa, x1 = 0.6484	0.298	0.332	0.371
10000 kPa, x1 = 0.6976	0.284	0.315	0.351
10000 kPa, x1 = 0.7494	0.262	0.289	0.317
10000 kPa, x1 = 0.798	0.234	0.256	0.276
10000 kPa, x1 = 0.849	0.195	0.211	0.224
10000 kPa, x1 = 0.8992	0.143	0.153	0.163
10000 kPa, x1 = 0.9485	0.0813	0.084	0.0911
10000 kPa, x1 = 0.9688	0.0514	0.0524	0.0568

CC(=O)CC(C)=O [2,4-pentanedione] + CCCO
excess molar enthalpy [kcal/mol]
Conditions	298.15 K	313.15 K	328.15 K
100 kPa, x1 = 0.0502	0.0721	0.0788	0.0869
100 kPa, x1 = 0.1502	0.184	0.205	0.224
100 kPa, x1 = 0.2502	0.259	0.289	0.321
100 kPa, x1 = 0.3504	0.311	0.347	0.385
100 kPa, x1 = 0.4001	0.327	0.364	0.404
100 kPa, x1 = 0.4502	0.338	0.374	0.416
100 kPa, x1 = 0.5006	0.344	0.38	0.421
100 kPa, x1 = 0.5501	0.344	0.378	0.419
100 kPa, x1 = 0.5997	0.339	0.371	0.41
100 kPa, x1 = 0.6495	0.327	0.355	0.392
100 kPa, x1 = 0.6994	0.309	0.333	0.366
100 kPa, x1 = 0.8006	0.248	0.261	0.286
100 kPa, x1 = 0.8504	0.202	0.211	0.233
100 kPa, x1 = 0.9493	0.0794	0.0835	0.0913
10000 kPa, x1 = 0.0502	0.0712	0.0775	0.0866
10000 kPa, x1 = 0.1504	0.181	0.201	0.222
10000 kPa, x1 = 0.2504	0.258	0.285	0.317
10000 kPa, x1 = 0.3507	0.309	0.343	0.379
10000 kPa, x1 = 0.4004	0.326	0.361	0.399
10000 kPa, x1 = 0.4505	0.338	0.371	0.413
10000 kPa, x1 = 0.501	0.344	0.375	0.418
10000 kPa, x1 = 0.5505	0.343	0.375	0.415
10000 kPa, x1 = 0.6001	0.339	0.367	0.405
10000 kPa, x1 = 0.6499	0.326	0.352	0.387
10000 kPa, x1 = 0.6997	0.308	0.329	0.36
10000 kPa, x1 = 0.8009	0.246	0.257	0.282
10000 kPa, x1 = 0.8506	0.201	0.207	0.228
10000 kPa, x1 = 0.9494	0.0791	0.0806	0.0894

CC(=O)CC(C)=O [2,4-pentanedione] + CC(C)O
excess molar enthalpy [kcal/mol]
Conditions	298.15 K	313.15 K	328.15 K
100 kPa, x1 = 0.0503	0.0985	0.101	0.103
100 kPa, x1 = 0.1501	0.235	0.247	0.262
100 kPa, x1 = 0.2502	0.321	0.344	0.365
100 kPa, x1 = 0.3499	0.374	0.403	0.43
100 kPa, x1 = 0.3997	0.39	0.421	0.448
100 kPa, x1 = 0.4498	0.401	0.432	0.459
100 kPa, x1 = 0.5001	0.405	0.436	0.462
100 kPa, x1 = 0.5507	0.403	0.432	0.457
100 kPa, x1 = 0.6	0.395	0.42	0.444
100 kPa, x1 = 0.6493	0.38	0.402	0.422
100 kPa, x1 = 0.7	0.356	0.376	0.393
100 kPa, x1 = 0.7999	0.285	0.296	0.305
100 kPa, x1 = 0.8503	0.234	0.238	0.246
100 kPa, x1 = 0.9504	0.0914	0.0934	0.0939
10000 kPa, x1 = 0.0502	0.0928	0.0986	0.103
10000 kPa, x1 = 0.1497	0.224	0.245	0.258
10000 kPa, x1 = 0.2496	0.312	0.341	0.362
10000 kPa, x1 = 0.3492	0.367	0.402	0.426
10000 kPa, x1 = 0.3989	0.384	0.42	0.445
10000 kPa, x1 = 0.449	0.395	0.431	0.456
10000 kPa, x1 = 0.4993	0.4	0.435	0.46
10000 kPa, x1 = 0.5498	0.399	0.431	0.455
10000 kPa, x1 = 0.5992	0.391	0.42	0.443
10000 kPa, x1 = 0.6486	0.376	0.401	0.422
10000 kPa, x1 = 0.6994	0.354	0.374	0.392
10000 kPa, x1 = 0.7993	0.284	0.294	0.304
10000 kPa, x1 = 0.8499	0.234	0.238	0.244
10000 kPa, x1 = 0.9503	0.0908	0.0922	0.0924
